Measurements reported in patent US12479847B2 (DANA-FARBER CANCER INSTITUTE, INC., priority 2019, dated 2025).

How the values were obtained:
Test in all cases: KINOMEscan (ScanMAX) kinase profiling
Assay type in all cases: binding
panel of 468 kinases [1] = molecular target: T1, panel of 468 kinases (Homo sapiens, UniProt O14733); details: MKK7; 1 μM; read-out: % control
T1 construct: purchased KINOMEscan (ScanMAX) service
T1 sequence (O14733 1-419): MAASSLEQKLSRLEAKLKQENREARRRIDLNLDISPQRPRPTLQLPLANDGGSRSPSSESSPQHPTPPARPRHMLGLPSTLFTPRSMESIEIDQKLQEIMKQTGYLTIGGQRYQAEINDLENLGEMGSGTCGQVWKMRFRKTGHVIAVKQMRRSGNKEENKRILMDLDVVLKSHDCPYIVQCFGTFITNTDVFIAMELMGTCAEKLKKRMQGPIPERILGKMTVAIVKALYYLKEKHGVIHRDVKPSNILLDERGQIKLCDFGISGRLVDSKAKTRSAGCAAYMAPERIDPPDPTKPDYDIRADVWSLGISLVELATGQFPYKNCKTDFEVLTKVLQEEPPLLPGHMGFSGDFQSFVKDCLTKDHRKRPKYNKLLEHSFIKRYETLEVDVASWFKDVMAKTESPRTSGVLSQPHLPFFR

panel of 468 kinases [2] = molecular target: T2, panel of 468 kinases (Homo sapiens, UniProt P22607); details: FGFR3; 1 μM; read-out: % control
T2 construct: purchased KINOMEscan (ScanMAX) service
T2 sequence (P22607 23-806): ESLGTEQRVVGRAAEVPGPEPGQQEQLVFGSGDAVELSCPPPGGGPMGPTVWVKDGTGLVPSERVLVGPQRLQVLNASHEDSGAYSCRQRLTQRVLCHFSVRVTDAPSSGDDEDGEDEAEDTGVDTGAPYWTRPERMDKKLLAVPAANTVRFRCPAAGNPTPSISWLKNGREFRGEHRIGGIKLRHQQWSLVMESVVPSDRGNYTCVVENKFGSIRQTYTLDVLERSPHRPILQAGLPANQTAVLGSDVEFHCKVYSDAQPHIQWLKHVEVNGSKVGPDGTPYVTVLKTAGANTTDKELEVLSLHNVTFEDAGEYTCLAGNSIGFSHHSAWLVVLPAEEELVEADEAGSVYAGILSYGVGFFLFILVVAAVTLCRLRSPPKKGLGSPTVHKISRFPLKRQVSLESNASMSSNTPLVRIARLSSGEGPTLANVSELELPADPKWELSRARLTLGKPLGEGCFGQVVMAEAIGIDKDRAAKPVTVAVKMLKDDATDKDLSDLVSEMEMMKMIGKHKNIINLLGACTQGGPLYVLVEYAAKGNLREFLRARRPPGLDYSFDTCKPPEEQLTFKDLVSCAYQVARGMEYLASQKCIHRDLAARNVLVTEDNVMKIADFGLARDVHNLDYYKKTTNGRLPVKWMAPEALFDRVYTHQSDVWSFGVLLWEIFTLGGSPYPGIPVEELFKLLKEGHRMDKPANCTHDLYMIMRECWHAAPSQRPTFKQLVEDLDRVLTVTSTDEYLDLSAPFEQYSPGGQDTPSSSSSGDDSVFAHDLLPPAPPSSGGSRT

panel of 468 kinases [3] = molecular target: T3, panel of 468 kinases (Homo sapiens, UniProt Q99640); details: PKMYT1; 1 μM; read-out: % control
T3 construct: purchased KINOMEscan (ScanMAX) service
T3 sequence (Q99640 1-499): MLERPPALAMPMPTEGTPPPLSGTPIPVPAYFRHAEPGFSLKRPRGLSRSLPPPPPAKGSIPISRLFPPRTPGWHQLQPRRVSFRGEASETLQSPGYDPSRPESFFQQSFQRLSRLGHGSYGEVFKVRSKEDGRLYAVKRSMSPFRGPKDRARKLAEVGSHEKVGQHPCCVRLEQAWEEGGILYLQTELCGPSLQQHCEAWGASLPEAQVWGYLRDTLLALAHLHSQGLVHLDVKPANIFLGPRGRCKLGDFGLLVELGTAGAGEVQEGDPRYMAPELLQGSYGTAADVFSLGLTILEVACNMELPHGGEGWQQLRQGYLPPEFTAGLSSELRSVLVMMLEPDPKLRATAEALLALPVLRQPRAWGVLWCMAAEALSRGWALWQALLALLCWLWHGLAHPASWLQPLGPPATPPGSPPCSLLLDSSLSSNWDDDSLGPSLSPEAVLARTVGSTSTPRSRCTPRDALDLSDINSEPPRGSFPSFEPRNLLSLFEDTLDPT

panel of 468 kinases [4] = molecular target: T4, panel of 468 kinases (Homo sapiens, UniProt Q15759); details: p38-beta; 1 μM; read-out: % control
T4 construct: purchased KINOMEscan (ScanMAX) service
T4 sequence (Q15759 whole entry): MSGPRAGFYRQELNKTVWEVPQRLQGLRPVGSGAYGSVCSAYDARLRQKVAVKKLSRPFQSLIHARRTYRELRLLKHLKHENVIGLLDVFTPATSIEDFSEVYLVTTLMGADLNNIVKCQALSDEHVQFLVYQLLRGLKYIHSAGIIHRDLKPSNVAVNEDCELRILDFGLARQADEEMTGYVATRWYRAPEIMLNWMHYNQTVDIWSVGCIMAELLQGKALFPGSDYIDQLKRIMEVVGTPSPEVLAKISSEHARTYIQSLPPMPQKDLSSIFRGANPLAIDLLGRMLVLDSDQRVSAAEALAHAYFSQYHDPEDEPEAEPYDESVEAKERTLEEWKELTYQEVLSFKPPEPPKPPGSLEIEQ

panel of 468 kinases [5] = molecular target: T5, panel of 468 kinases (Homo sapiens, UniProt P21802); details: FGFR2; 1 μM; read-out: % control
T5 construct: purchased KINOMEscan (ScanMAX) service
T5 sequence (P21802 22-821): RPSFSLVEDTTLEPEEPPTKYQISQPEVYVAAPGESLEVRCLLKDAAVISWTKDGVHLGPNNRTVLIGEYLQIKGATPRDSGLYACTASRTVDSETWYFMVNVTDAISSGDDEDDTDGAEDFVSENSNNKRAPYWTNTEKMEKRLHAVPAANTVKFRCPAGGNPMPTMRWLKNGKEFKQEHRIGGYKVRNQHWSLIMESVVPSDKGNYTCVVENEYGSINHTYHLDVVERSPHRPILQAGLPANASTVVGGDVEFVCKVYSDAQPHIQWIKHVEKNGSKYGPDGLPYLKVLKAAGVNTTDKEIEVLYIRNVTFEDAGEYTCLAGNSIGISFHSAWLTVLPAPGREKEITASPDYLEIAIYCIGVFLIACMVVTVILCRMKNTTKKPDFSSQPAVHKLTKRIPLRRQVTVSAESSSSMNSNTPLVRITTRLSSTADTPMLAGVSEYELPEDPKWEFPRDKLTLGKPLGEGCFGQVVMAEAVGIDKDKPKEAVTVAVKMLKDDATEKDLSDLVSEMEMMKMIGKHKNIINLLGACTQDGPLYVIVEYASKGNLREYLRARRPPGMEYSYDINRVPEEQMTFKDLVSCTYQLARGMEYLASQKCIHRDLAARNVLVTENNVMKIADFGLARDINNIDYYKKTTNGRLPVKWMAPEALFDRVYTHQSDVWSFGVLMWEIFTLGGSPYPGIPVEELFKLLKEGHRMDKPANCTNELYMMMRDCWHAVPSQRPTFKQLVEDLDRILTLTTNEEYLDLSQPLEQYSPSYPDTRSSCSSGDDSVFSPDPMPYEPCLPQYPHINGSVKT

panel of 468 kinases [6] = molecular target: T6, panel of 468 kinases (Homo sapiens, UniProt Q86UE8); details: TLK2; 1 μM; read-out: % control
T6 construct: purchased KINOMEscan (ScanMAX) service

panel of 468 kinases [7] = molecular target: T7, panel of 468 kinases (Homo sapiens, UniProt Q08881); details: ITK; 1 μM; read-out: % control
T7 construct: purchased KINOMEscan (ScanMAX) service
T7 sequence (Q08881 1-620): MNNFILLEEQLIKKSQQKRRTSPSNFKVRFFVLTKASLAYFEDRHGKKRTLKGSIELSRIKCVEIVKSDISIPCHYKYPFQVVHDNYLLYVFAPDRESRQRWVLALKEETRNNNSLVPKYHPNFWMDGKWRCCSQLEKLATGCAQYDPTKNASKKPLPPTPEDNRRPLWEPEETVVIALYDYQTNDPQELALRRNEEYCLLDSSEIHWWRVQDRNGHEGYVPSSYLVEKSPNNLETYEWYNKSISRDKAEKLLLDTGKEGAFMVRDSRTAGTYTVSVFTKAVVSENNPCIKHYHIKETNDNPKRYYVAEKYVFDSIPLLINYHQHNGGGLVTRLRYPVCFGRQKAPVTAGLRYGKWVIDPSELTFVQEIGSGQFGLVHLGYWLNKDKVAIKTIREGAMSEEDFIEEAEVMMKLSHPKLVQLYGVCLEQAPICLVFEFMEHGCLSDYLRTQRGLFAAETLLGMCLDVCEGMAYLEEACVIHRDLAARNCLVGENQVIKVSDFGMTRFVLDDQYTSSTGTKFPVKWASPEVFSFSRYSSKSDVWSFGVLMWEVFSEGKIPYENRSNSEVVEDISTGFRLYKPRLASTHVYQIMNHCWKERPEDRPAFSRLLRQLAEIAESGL

panel of 468 kinases [8] = molecular target: T8, panel of 468 kinases (Homo sapiens, UniProt Q8NI60); details: ADCK3; 1 μM; read-out: % control
T8 construct: purchased KINOMEscan (ScanMAX) service
T8 sequence (Q8NI60 163-647): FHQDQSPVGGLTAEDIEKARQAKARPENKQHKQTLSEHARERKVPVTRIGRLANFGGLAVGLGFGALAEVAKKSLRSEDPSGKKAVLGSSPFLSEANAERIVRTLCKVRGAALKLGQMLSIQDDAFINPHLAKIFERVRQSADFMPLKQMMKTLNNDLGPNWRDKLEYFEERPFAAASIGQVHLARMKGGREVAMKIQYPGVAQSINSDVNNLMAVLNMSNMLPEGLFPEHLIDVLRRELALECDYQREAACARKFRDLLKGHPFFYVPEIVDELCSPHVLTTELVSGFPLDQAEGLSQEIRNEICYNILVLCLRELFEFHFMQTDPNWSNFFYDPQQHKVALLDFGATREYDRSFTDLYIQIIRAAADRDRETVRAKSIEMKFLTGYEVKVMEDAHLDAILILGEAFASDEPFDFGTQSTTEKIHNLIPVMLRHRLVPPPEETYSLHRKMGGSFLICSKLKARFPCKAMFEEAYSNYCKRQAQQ

panel of 468 kinases [9] = molecular target: T9, panel of 468 kinases (Homo sapiens, UniProt Q96J92); details: WNK4; 1 μM; read-out: % control
T9 construct: purchased KINOMEscan (ScanMAX) service
T9 sequence (Q96J92 whole entry): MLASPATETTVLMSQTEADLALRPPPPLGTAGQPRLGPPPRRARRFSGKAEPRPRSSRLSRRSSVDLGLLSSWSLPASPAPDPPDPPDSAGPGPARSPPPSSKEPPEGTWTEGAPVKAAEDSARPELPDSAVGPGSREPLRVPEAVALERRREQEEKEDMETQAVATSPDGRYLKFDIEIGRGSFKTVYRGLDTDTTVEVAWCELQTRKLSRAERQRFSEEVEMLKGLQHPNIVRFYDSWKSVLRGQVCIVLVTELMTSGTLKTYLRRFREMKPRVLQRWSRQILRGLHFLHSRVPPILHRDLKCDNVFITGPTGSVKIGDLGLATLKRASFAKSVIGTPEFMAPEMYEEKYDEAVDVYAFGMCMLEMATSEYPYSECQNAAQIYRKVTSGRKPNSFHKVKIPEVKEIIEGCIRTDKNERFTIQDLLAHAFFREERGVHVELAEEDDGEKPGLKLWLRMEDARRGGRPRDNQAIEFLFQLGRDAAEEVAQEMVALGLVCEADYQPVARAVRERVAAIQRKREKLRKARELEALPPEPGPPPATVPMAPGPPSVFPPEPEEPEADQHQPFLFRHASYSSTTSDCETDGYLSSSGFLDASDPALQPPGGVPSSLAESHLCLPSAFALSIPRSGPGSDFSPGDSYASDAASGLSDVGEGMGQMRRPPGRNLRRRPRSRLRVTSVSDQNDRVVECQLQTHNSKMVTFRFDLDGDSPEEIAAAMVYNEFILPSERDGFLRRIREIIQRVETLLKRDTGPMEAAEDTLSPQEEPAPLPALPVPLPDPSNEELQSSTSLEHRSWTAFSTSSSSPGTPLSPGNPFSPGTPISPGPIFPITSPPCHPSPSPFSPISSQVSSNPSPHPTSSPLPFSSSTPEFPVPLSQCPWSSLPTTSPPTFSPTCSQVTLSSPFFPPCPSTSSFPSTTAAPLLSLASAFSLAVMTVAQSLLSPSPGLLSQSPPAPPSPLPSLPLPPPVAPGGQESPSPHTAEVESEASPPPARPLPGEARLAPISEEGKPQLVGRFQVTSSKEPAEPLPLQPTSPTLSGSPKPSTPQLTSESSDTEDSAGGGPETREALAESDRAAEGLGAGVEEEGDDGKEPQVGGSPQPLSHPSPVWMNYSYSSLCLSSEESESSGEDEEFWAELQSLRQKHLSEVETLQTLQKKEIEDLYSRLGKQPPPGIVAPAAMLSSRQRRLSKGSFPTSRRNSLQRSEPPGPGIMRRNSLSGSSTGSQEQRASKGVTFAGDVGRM

panel of 468 kinases [10] = molecular target: T10, panel of 468 kinases (Homo sapiens, UniProt P51617); details: IRAK1; 1 μM; read-out: % control
T10 construct: purchased KINOMEscan (ScanMAX) service
T10 sequence (P51617 whole entry): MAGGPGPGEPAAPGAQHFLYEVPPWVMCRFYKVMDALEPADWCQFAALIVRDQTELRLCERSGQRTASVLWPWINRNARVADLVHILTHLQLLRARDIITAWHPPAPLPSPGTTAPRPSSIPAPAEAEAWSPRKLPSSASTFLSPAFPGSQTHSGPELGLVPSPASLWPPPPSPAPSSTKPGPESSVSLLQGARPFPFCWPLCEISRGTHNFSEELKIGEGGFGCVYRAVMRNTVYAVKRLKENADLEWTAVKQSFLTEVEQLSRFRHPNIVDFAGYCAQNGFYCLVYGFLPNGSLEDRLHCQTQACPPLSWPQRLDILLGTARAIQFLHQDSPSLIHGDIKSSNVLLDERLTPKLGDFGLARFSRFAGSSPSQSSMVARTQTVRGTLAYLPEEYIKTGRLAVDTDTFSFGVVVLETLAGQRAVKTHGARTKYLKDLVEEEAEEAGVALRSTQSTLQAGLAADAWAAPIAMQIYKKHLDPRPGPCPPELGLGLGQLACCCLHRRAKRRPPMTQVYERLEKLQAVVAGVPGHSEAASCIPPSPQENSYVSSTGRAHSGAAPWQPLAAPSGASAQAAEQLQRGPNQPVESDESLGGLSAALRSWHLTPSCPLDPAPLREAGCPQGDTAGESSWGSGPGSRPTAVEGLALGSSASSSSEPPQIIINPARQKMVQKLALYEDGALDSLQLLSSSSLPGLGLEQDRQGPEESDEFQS

SMILES | remaining binding at 1 µM (panel of 468 kinases [1]) | remaining binding at 1 µM (panel of 468 kinases [2]) | remaining binding at 1 µM (panel of 468 kinases [3]) | remaining binding at 1 µM (panel of 468 kinases [4]) | remaining binding at 1 µM (panel of 468 kinases [5]) | remaining binding at 1 µM (panel of 468 kinases [6]) | remaining binding at 1 µM (panel of 468 kinases [7]) | remaining binding at 1 µM (panel of 468 kinases [8]) | remaining binding at 1 µM (panel of 468 kinases [9]) | remaining binding at 1 µM (panel of 468 kinases [10])
CNc1nc(Nc2ccc(S(=O)(=O)N3CCC(N4CCOCC4)CC3)cc2OC)nc2[nH]cc(Cl)c12 [Compound 12, 5-chloro-N2-(2-methoxy-4-((4-morpholinopiperidin-1-yl)sulfonyl)phenyl)-N4-methyl-7H-pyrrolo[2,3-d]pyrimidine-2,4-diamine] | 100% | 100% | 100% | 100% | 100% | 100% | 92% | 100% | 61% | 92%
CNc1nc(Nc2ccc(C(=O)N3CCC(N4CCOCC4)CC3)c3c2OCO3)nc2[nH]cc(Cl)c12 [Compound 75, (7-((5-chloro-4-(methylamino)-7H-pyrrolo[2,3-d]pyrimidin-2-yl)amino)benzo[d][1,3]dioxol-4-yl)(4-morpholinopiperidin-1-yl)methanone] | 96% | 98% | 100% | 100% | 97% | 100% | 100% | 100% | 66% | 51%
CNc1nc(Nc2ccc(P3(=O)CCN(C4CCOCC4)CC3)cc2OC)nc2[nH]cc(Cl)c12 [Compound 77, 4-(4-((5-chloro-4-(methylamino)-7H-pyrrolo[2,3-d]pyrimidin-2-yl)amino)-3-methoxyphenyl)-1-(tetrahydro-2H-pyran-4-yl)-1,4-azaphosphinane 4-oxide] | 100% | 100% | 100% | 100% | 100% | 100% | 97% | 100% | 66% | 88%
